Measured values published in patent US11919965B2, “Methods of treating multiple myeloma with bispecific anti-BCMA x anti-CD3 antibodies” (Regeneron Pharmaceuticals, Inc., priority 2019, dated 2024).

Columns and labels:
[1] = tested on: established BCMA-expressing NCI-H929 multiple myeloma tumors; assay: Xenogenic tumor model, established NCI-H929 tumors + human PBMC in NSG mice, treatment from day 5 (Example 12); format: in vivo, mouse; details: for Average Tumor Size (mm3) ± SEM on Day 5: day of first dose
Method: To determine the in vivo efficacy of anti-BCMA×anti-CD3 bispecific antibodies (Abs), a xenogenic tumor study was performed. Immunodeficient NOD.Cg-Prkdc^scidII2rg^tm1Wjl/SzJ (NSG) mice were subcutaneously implanted with a mixture of 10×10^6 BCMA-expressing NCI-H929 human multiple myeloma tumor cells and 0.5×10^6 human peripheral blood mononuclear cells (PBMC) isolated from a normal, healthy donor. The tumors were allowed to grow and establish for 5 days until they were approximately 70 mm^3 in size. […] The mice were administered these Abs twice per week for a total of seven doses, and tumor growth was assessed over 55 days.
Implantation and measurement of xenogenic tumors: NSG mice were subcutaneously implanted with a mixture of 10×10^6 BCMA-expressing NCI-H929 multiple myeloma cells and 0.5×10^6 PBMC derived from a normal, healthy donor. The tumors were allowed to grow and establish for 5 days until they were approximately 70 mm^3 in size. […] The mice were administered Abs twice per week for a total of seven doses. Tumor growth was measured with calipers twice per week for the duration of the experiment.
(§1) Calculation of xenogenic tumor growth and inhibition: In order to determine tumor volume by external caliper, the greatest longitudinal diameter (length in mm) and the greatest transverse diameter (width in mm) were determined. Tumor volumes based on caliper measurements were calculated by the formula: Volume (mm^3)=(length× width^2)/2.

monkey BCMA-MMH = assay: SPR (Biacore 4000) binding kinetics at 25° C.
Method: (§2) The CM5 Biacore sensor surface was derivatized by amine coupling with a monoclonal mouse anti-human Fc antibody (GE, #BR-1008-39) to capture purified anti-BCMA mAbs and anti-BCMA×anti-CD3 bispecific mAbs. All Biacore binding studies were performed in a buffer composed of 0.01M HEPES pH 7.4, 0.15M NaCl, 3 mM EDTA, 0.05% v/v Surfactant P20 (HBS-ET running buffer). […] Antigen samples were then injected over the anti-BCMA and anti-BCMA×anti-CD3 bispecific mAbs captured surfaces at a flow rate of 30 μL/minute. Antibody-reagent association was monitored for 5 minutes while dissociation in HBS-ET running buffer was monitored for 10 minutes. All of the binding kinetics experiments were performed at 25° C. Kinetic association (ka) and dissociation (kd) rate constants were determined by fitting the real-time sensorgrams to a 1:1 binding model using Scrubber 2.0c curve fitting software. Binding dissociation equilibrium constants (KD) and dissociative half-lives (t1/2) were calculated from the kinetic rate constants as: […]

monkey BCMA-MFC = assay: SPR (Biacore 4000) binding kinetics at 25° C.
Method: as §2

[2] = tested on: BCMA-expressing MOLP-8 multiple myeloma tumors; assay: Xenogenic tumor model, MOLP-8 + human PBMC s.c. in NSG mice, dose response (Example 13); format: in vivo, mouse
Method: To determine the in vivo efficacy of anti-BCMA×anti-CD3 bispecific antibodies (Abs), a xenogenic tumor study was performed. Immunodeficient NOD.Cg-Prkdc^scidII2rg^tm1Wjl/SzJ (NSG) mice were subcutaneously implanted with a mixture of 5×10^6 BCMA-expressing MOLP-8 human multiple myeloma tumor cells and 1×10^6 human peripheral blood mononuclear cells (PBMC) isolated from a normal, healthy donor. […] The mice were administered these Abs twice per week for a total of seven doses, and tumor growth was assessed over 56 days. While the BCMA+ MOLP-8 tumors grew similarly in the vehicle- and CD3-binding control-treated mice, both BCMA×CD3 Abs that were tested prevented the growth of tumors in a dose-dependent manner in vivo.
Implantation and measurement of xenogenic tumors: NSG mice were subcutaneously implanted with a mixture of 5×10^6 BCMA-expressing MOLP-8 multiple myeloma cells and 1×10^6 PBMC derived from a normal, healthy donor. […] The mice were administered Abs twice per week for a total of seven doses. Tumor growth was measured by caliper twice per week for the duration of the experiment.
as §1

Sequence of monkey BCMA-MFC (as listed by the source): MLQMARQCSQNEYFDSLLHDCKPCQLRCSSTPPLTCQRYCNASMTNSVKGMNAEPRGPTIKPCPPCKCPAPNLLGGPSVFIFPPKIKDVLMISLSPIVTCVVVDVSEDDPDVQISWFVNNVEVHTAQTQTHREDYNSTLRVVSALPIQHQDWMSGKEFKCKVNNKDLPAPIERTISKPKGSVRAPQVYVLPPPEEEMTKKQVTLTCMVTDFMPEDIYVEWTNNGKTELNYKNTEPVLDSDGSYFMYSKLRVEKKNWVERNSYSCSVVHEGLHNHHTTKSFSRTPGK
Sequence of monkey BCMA-MMH (as listed by the source): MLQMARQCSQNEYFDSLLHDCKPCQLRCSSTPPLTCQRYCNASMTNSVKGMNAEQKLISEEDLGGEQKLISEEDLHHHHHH

## REGN5459: anti-BCMA×anti-CD3 bispecific antibody: mAb21581 BCMA heavy chain, mAb7221G20 CD3 heavy chain and common light chain; SEQ ID NOs 126, 128, 129
[1]; 0.04 mg/kg
  Average Tumor Size (mm3) ± SEM on Day 8: 152.3 ± 20.0 mm3
  Average Tumor Size (mm3) ± SEM on Day 12: 462.5 ± 57.7 mm3
  Average Tumor Size (mm3) ± SEM on Day 15: 1094.2 ± 78.9 mm3
  Average Tumor Size (mm3) ± SEM on Day 19: 2412.5 ± 184.6 mm3
  Average Tumor Size (mm3) ± SEM on Day 22: 3285.9 ± 227.3 mm3
  Average Tumor Size (mm3) ± SEM on Day 5: 74.9 ± 6.4 mm3
[1]; 0.4 mg/kg
  Average Tumor Size (mm3) ± SEM on Day 8: 171.9 ± 23.2 mm3
  Average Tumor Size (mm3) ± SEM on Day 12: 233.8 ± 63.5 mm3
  Average Tumor Size (mm3) ± SEM on Day 15: 327.2 ± 135.6 mm3
  Average Tumor Size (mm3) ± SEM on Day 19: 606.2 ± 288.8 mm3
  Average Tumor Size (mm3) ± SEM on Day 22: 815.4 ± 387.1 mm3
  Average Tumor Size (mm3) ± SEM on Day 27: 1849.9 ± 903.1 mm3
  Average Tumor Size (mm3) ± SEM on Day 30: 661.8 ± 490.1 mm3
  Average Tumor Size (mm3) ± SEM on Day 35: 996.8 ± 771.0 mm3
  Average Tumor Size (mm3) ± SEM on Day 40: 375.6 ± 375.6 mm3
  Average Tumor Size (mm3) ± SEM on Day 55: 0 ± 0 mm3
  Average Tumor Size (mm3) ± SEM on Day 5: 69.5 ± 4.1 mm3
[1]; 4 mg/kg
  Average Tumor Size (mm3) ± SEM on Day 8: 45.8 ± 9.8 mm3
  Average Tumor Size (mm3) ± SEM on Day 15: 0 ± 0 mm3
  Average Tumor Size (mm3) ± SEM on Day 19: 0 ± 0 mm3
  Average Tumor Size (mm3) ± SEM on Day 22: 0 ± 0 mm3
  Average Tumor Size (mm3) ± SEM on Day 27: 0 ± 0 mm3
  Average Tumor Size (mm3) ± SEM on Day 30: 0 ± 0 mm3
  Average Tumor Size (mm3) ± SEM on Day 35: 0 ± 0 mm3
  Average Tumor Size (mm3) ± SEM on Day 40: 0 ± 0 mm3
  Average Tumor Size (mm3) ± SEM on Day 55: 0 ± 0 mm3
  Average Tumor Size (mm3) ± SEM on Day 5: 61.8 ± 5.2 mm3
Monkey BCMA-MMH
  ka: 223000 M⁻¹ s⁻¹
  kd: 0.00864 s⁻¹
Monkey BCMA-MFC
  ka: 482000 M⁻¹ s⁻¹
  kd: 7.15e-05 s⁻¹
[2]; 0.04 mg/kg
  Average Tumor Size (mm3) ± SEM on Day 3: 11.7 ± 2.1 mm3
  Average Tumor Size (mm3) ± SEM on Day 7: 37.0 ± 5.7 mm3
  Average Tumor Size (mm3) ± SEM on Day 10: 104 ± 23.0 mm3
  Average Tumor Size (mm3) ± SEM on Day 14: 356.7 ± 84.6 mm3
  Average Tumor Size (mm3) ± SEM on Day 17: 645.6 ± 140.9 mm3
  Average Tumor Size (mm3) ± SEM on Day 21: 1442.4 ± 310.7 mm3
  Average Tumor Size (mm3) ± SEM on Day 23: 2124.4 ± 444.1 mm3
  Average Tumor Size (mm3) ± SEM on Day 28: 1939.3 ± 840.6 mm3
  Average Tumor Size (mm3) ± SEM on Day 31: 2688.7 ± 1176.6 mm3
  Average Tumor Size (mm3) ± SEM on Day 35: 612.1 ± 0 mm3
[2]; 0.4 mg/kg
  Average Tumor Size (mm3) ± SEM on Day 3: 14.0 ± 1.6 mm3
  Average Tumor Size (mm3) ± SEM on Day 7: 0 ± 0 mm3
  Average Tumor Size (mm3) ± SEM on Day 10: 0 ± 0 mm3
  Average Tumor Size (mm3) ± SEM on Day 14: 0 ± 0 mm3
  Average Tumor Size (mm3) ± SEM on Day 17: 0 ± 0 mm3
  Average Tumor Size (mm3) ± SEM on Day 21: 0 ± 0 mm3
  Average Tumor Size (mm3) ± SEM on Day 23: 0 ± 0 mm3
  Average Tumor Size (mm3) ± SEM on Day 28: 0 ± 0 mm3
  Average Tumor Size (mm3) ± SEM on Day 31: 0 ± 0 mm3
  Average Tumor Size (mm3) ± SEM on Day 35: 0 ± 0 mm3
  Average Tumor Size (mm3) ± SEM on Day 42: 0 ± 0 mm3
  Average Tumor Size (mm3) ± SEM on Day 56: 0 ± 0 mm3
[2]; 4 mg/kg
  Average Tumor Size (mm3) ± SEM on Day 3: 12.9 ± 1.3 mm3
  Average Tumor Size (mm3) ± SEM on Day 7: 0.6 ± 0.6 mm3
  Average Tumor Size (mm3) ± SEM on Day 10: 0 ± 0 mm3
  Average Tumor Size (mm3) ± SEM on Day 14: 0 ± 0 mm3
  Average Tumor Size (mm3) ± SEM on Day 17: 0 ± 0 mm3
  Average Tumor Size (mm3) ± SEM on Day 21: 0 ± 0 mm3
  Average Tumor Size (mm3) ± SEM on Day 23: 0 ± 0 mm3
  Average Tumor Size (mm3) ± SEM on Day 28: 1.9 ± 1.9 mm3
  Average Tumor Size (mm3) ± SEM on Day 31: 3.8 ± 3.0 mm3
  Average Tumor Size (mm3) ± SEM on Day 35: 9.3 ± 7.5 mm3
  Average Tumor Size (mm3) ± SEM on Day 42: 12.8 ± 12.8 mm3
  Average Tumor Size (mm3) ± SEM on Day 56: 17.2 ± 17.2 mm3
